The target in the experiment is T1, type H3 central histamine receptors (Mus musculus, UniProt P58406).
T1 construct: from tissue
The experiment can be described thus: Cerebral dosages of N^t-methylhistamine in the NMRI mouse (ex vivo, RIA). Conditions: NMRI mice, brain one hour after treatment, versus carrier controls. The procedure:
The purpose of this study, which was carried out in accordance with the method of Taylor et al. (Biochem. […] An increase in the cerebral concentrations of N^t-methylhistamine indicates an increase in the turn-over of histamine by blockage of the type H3 central histamine receptors. […] One hour after the pharmacological treatment, the animals are sacrificed, and their brains are removed, frozen in liquid nitrogen, weighed and homogenised in 0.1N HClO4 at 4° C. […] The supernatants are recovered and divided into aliquots. The aliquots are frozen in liquid nitrogen and stored at −80° C. until analysis. Determination of the cerebral levels of N^t-methylhistamine is carried out by radioimmunological assay (RIA) using an assay kit. The tissue levels of N^t-methylhistamine are expressed in μg/g of fresh brain. The comparison of the cerebral levels of N^t-methylhistamine between animals treated with the carrier (controls) and animals treated with compounds of the present invention is carried out by single factor variance analysis followed, if necessary, by a complementary analysis (Dunnett test).

Each structure is given as a SMILES string.

T1 sequence (P58406 whole entry): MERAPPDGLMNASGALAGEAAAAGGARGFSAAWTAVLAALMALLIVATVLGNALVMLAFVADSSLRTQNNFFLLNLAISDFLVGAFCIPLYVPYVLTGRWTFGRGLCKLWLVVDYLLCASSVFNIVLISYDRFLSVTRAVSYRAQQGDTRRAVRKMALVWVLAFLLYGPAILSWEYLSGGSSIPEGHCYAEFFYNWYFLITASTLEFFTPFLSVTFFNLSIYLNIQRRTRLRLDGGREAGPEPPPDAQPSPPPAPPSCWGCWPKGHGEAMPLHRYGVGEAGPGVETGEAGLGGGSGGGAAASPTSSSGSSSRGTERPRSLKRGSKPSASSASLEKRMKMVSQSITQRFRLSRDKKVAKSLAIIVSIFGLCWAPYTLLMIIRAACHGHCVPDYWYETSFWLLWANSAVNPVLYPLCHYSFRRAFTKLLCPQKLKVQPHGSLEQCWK

With `Cl.Cl.c1ccc2c(c1)cnn2CCCCN1CCN2CCCCC2C1` (stereo not shown) [Example 55, 2-[4-(1H-Indazol-1-yl)butyl]octahydro-2H-pyridol[1,2-a]pyrazine dihydrochloride], the “increase in endogenous cerebral concentrations of N^t-methylhistamine” value (from here on “increase”) (30 mg/kg IP) amounted to 124%. Regarding `N#Cc1ccc(OCCCN2CCN3CCCCC3C2)cc1.O=C(O)/C=C/C(=O)O.O=C(O)/C=C/C(=O)O` (stereo not shown) [Example 56, 4-(3-Octahydro-2H-pyrido[1,2-a]pyrazin-2-ylpropoxy)benzonitrile difumarate], the “increase” value (10 mg/kg IP, difumarate, 10 mg/kg) is recorded as 252%. With `N#Cc1ccc(OCCCN2CCN3CCCCC3C2)cc1.O=C(O)/C=C/C(=O)O.O=C(O)/C=C/C(=O)O` (single isomer, unassigned) [Example 58, 4-(3-octahydro-2H-pyrido[1,2-a]pyrazin-2-ylpropoxy)benzonitrile difumarate, enantiomer β], for the setting “10 mg/kg IP, 10 mg/kg”, the “increase” value is given as 236%. Regarding `Cl.Cl.Cl.c1ccc2c(c1)ncn2CCCCN1CCN2CCCCC2C1` (stereo not shown) [Example 53, 2-[4-(1H-Benzimidazol-1-yl)butyl]octahydro-2H-pyrido[1,2-a]pyrazine trihydrochloride], the “increase” value (30 mg/kg IP) is recorded as 89%.

The values are drawn from patent publication US6992085B2, “Octahydro-2H-pyrido[1,2-a]pyrazine compounds” (Les Laboratories Servier, priority 2001, dated 2006).
